Results as given in patent US20050014849A1, “Antifungal phenylethylene” (priority 2001, published 2005).
In brackets after ≈: the same amount, converted by molar mass. Several values for one entry are separate records, joined by “and”; a condition that tells them apart may be missing. Equal entries are not always repeated. Where two headings read alike, the source gives them in different places.

Assays:
bovine brain tubulin [1] = test system: T1, bovine brain tubulin; experiment: Tubulin polymerization assay; format: biochemical; settings: 1 mg/ml tubulin; 20 min incubation at 30° C.
T1 construct: Electrophoretically homogeneous bovine brain tubulin [12]
Procedure: (§1) Electrophoretically homogeneous bovine brain tubulin [12] was used in studies to evaluate the effects of TMPN on in vitro tubulin polymerization and the binding of […] (Dupont-NEN) to tubulin. These studies were performed as described previously. In the polymerization assay, varying drug concentrations were added to 1 mg/ml tubulin to determine the amount of drug that would inhibit the extent of the reaction by 50% (20 min incubation at 30° C.) (IC50 value). In the colchicine binding assay, the effect of varying drug concentrations on the binding of 2 μg/ml colchicine to 100 μg/ml tubulin was measured after 10 min at 37° C. (control reaction about 50% complete).

[2] = test system: Amphotericin B-resistant C. lusitaniae ATCC 42720; experiment: Broth macrodilution MIC/MFC; format: cell-based, Candida lusitaniae
Procedure: (§2) TMPN was screened against yeasts by the broth macrodilution assay according to the NCCLS [7]. Yeasts were suspended and diluted as recommended to yield final inocula ranging from 0.5-2.5×10^3 cfu/ml. Tests were performed in sterile 12 by 75 mm plastic tubes containing two-fold dilutions of TMPN in 0.165 M morpholinepropanesulfonic acid buffered RPMI 1640 medium (pH 7.0). One tube was again left drug free (but contained an equivalent volume of DMSO) for a turbidity control. Tubes were incubated without agitation at the appropriate temperature (see Fungal Strains section above). MICs were determined after 72 h for Cryptococcus and after 48 h for other yeast genera. The MIC was defined as the lowest concentration of TMPN that inhibited all visible growth of the test organism (optically clear).
(§3) Minimum fungicidal concentrations (MFCs) were determined by subculturing 0.1 ml from each tube with no visible growth in the MIC broth macrodilution series onto the appropriate drug-free plates (see Fungal Strains section above).

C. tropicalis (9) = experiment: Broth macrodilution MIC/MFC; format: cell-based, Candida tropicalis
Procedure: as §2, §3

[3] = test system: Filobasidium uniguttulatum ATCC 24227; experiment: Broth macrodilution MIC/MFC; format: cell-based
Procedure: as §2, §3

[4] = test system: Rhodotorula mucilaginosa ATCC 9449; experiment: Broth macrodilution MIC/MFC; format: cell-based
Procedure: as §2, §3

[5] = test system: murine P388 lymphocytic leukemia cell line and six human cancer cell lines; experiment: Sulforhodamine B cancer cell growth inhibition (summary over lines); format: cell-based
Procedure: An investigation TMPN's in vitro antineoplastic activity was also conducted. This investigation included an analysis of both cell growth, and of the effects of TMPN upon tubulin. Inhibition of cancer cell growth was assessed using the Sulforhodamine B assay as previously described. Briefly, cells in 5% fetal calf serum/RPMI-1640 were inoculated into 96 well plates, incubated 24 h and 10-fold dilutions of TMPN added. After a 48 h incubation, plates were fixed with trichloroacetic acid, washed, stained with Sulforhodamine B and read with an automated microtiter plate reader.

fungal = experiment: Frequency of fungal spontaneous mutations to resistance (summary); format: cell-based; settings: summary statement
Procedure: Determination of the frequency of occurrence of spontaneous mutants was performed as previously described. Overnight cultures of C neoformans (ATCC 90112), C. albicans (ATCC 90028) and Trichosporon inkin (ATCC 18020) were diluted to an OD530 nm=0.3. 0.1 ml of each preparation was spread onto SDA plates containing four or eight times the broth macrodilution MIC of TMPN. The starting inoculum for each organism was also diluted and plated onto drug-free SDA plates for determination of cfu/ml. After a 48 h incubation at the appropriate temperature (see Fungal Strains section above), the number of colonies on drug-supplemented SDA was counted. The frequency of occurrence of spontaneous mutants was calculated by dividing the number of colonies on drug-containing plates by the number of colonies in the inoculum. When no colonies were visualized on drug-containing plates, the calculation was (<) 1 colony divided by the number of colonies in the inoculum.

bovine brain tubulin [6] = test system: T1, bovine brain tubulin; experiment: Colchicine binding assay; settings: 10 min at 37° C.
Procedure: as §1

[7] = test system: C. viswanathii ATCC 22981; experiment: Broth macrodilution MIC/MFC; format: cell-based, Candida viswanathii
Procedure: as §2, §3

A. nidulans strain FGSC4 = experiment: Broth macrodilution MIC/MFC, filamentous fungi; format: cell-based, Aspergillus nidulans
Procedure: Susceptibility testing of filamentous fungi was also conducted. Broth macrodilution susceptibility testing of P. lilacinus, Rhizopus spp. and Aspergillus spp. was performed in accordance with a proposed standardized procedure with slight modification. To induce conidium and sporangiospore formation, fungi were grown on PDA slants at 35° C. for 6 days (P. lilacinus, Rhizopus spp., all Aspergillus species except A. nidulans) or 3 days (A. nidulans). Fungal slants were covered with sterile 0.85% NaCl (P. lilacinus, Rhizopus spp., all Aspergillus species except A. nidulans) or 0.05% Tween 80 (A. nidulans), and suspensions were made by gently probing the colonies with the tip of a sterile Pasteur pipette. The resulting mixture of hyphal fragments and conidia or sporangiospores was withdrawn and transferred to a sterile clear microcentrifuge tube, and heavy particles were allowed to settle for 10 min. […] Susceptibility to TMPN was then determined by broth macrodilution as described above for yeast isolates. […]
as §3

T. inkin ATCC 18020 = experiment: Broth macrodilution MIC/MFC; format: cell-based, Trichosporon inkin; settings: for MFC: Trichosporon inkin ATCC 18020; for MIC: Trichosporon inkin
Procedure: as §2, §3
Possible host effects were also evaluated. Broth macrodilution assays were performed with RPMI medium prepared at pH 5, pH 6, and pH 7, and in RPMI medium with and without 50% normal human serum (Lampire Biological Labs). The pH experiments were performed twice on separate days.

COc1cc(C=C[N+](=O)[O-])cc(OC)c1OC [TMPN, 1-(3′,4′,5′-trimethoxyphenyl)-2-nitro-ethylene]
IC50 for inhibition of the extent of tubulin assembly (bovine brain tubulin [1]): 0.60 µg/mL and 0.60 ± 0.07 µg/mL
MFC Range [2]: 16 µg/mL (≈ 66.9 µM)
MIC Range [2]: 16 µg/mL (≈ 66.9 µM)
MIC Range (C. tropicalis (9)): 32 to 64 µg/mL
MFC Range [3]: 2 µg/mL (≈ 8.36 µM)
MIC Range [3]: 0.5 µg/mL (≈ 2.09 µM)
MFC Range [4]: 8 µg/mL (≈ 33.4 µM)
MIC Range [4]: 4 µg/mL (≈ 16.7 µM)
GI50 ([5]; Mus musculus, P388, murine P388 and six human cancer cell lines, read-out: GI50 values, range over cell lines): 1 to 4 µg/mL (≈ 4.18 to 16.7 µM)
GI50 values, range over cell lines ([5]; murine P388 and six human cancer cell lines): 1.1 to 4.1 µg/mL
frequency of fungal spontaneous mutations to resistance (fungal): < 10^−6
inhibition of [^3H]colchicine binding to tubulin (bovine brain tubulin [6]; 5 μM (combretastatin A-4 1.6 μg/ml; TMPN 1.2 μg/ml)): 13±0.5%
inhibition of [^3H]colchicine binding to tubulin (bovine brain tubulin [6]; 12 μg/ml (50 uM)): 69±0.5%
MFC Range [7]: >64 µg/mL
MIC Range [7]: 32 µg/mL (≈ 134 µM)
MFC Range (A. nidulans strain FGSC4): 16 µg/mL (≈ 66.9 µM)
MIC Range (A. nidulans strain FGSC4): 8 µg/mL (≈ 33.4 µM)
MFC (T. inkin ATCC 18020; ATCC18020, pH 6, pH6, read-out: MFC): 16 µg/mL (≈ 66.9 µM)
MFC (T. inkin ATCC 18020; ATCC18020, pH 7, pH7, read-out: MFC): 16 µg/mL (≈ 66.9 µM)
MFC (T. inkin ATCC 18020; ATCC18020, no serum, read-out: MFC): 16 µg/mL (≈ 66.9 µM)
MFC (T. inkin ATCC 18020; ATCC18020, pH 5, read-out: MFC): 8 µg/mL (≈ 33.4 µM)
MFC Range (T. inkin ATCC 18020; T. inkin ATCC 18020): 16 µg/mL (≈ 66.9 µM)
MIC Range (T. inkin ATCC 18020; T. inkin ATCC 18020): 8 µg/mL (≈ 33.4 µM)
MFC (T. inkin ATCC 18020; pH 5, repeat experiment): 8 µg/mL (≈ 33.4 µM)
MFC (T. inkin ATCC 18020; pH6, repeat experiment): 16 µg/mL (≈ 66.9 µM)
MFC (T. inkin ATCC 18020; pH7, repeat experiment): 16 µg/mL (≈ 66.9 µM)
MIC (T. inkin ATCC 18020; ATCC18020, Trichosporon inkin ATCC 18020, 50% human serum): > 64 µg/mL
MIC (T. inkin ATCC 18020; ATCC18020, Trichosporon inkin ATCC 18020, no serum): 8 µg/mL (≈ 33.4 µM)
MIC (T. inkin ATCC 18020; ATCC18020, pH 5, Trichosporon inkin ATCC 18020, pH 5): 4 µg/mL (≈ 16.7 µM)
MIC (T. inkin ATCC 18020; ATCC18020, pH 5, Trichosporon inkin ATCC 18020, pH 5, repeat experiment): 4 µg/mL (≈ 16.7 µM)
MIC (T. inkin ATCC 18020; ATCC18020, pH 6, Trichosporon inkin ATCC 18020, pH6): 8 µg/mL (≈ 33.4 µM)
MIC (T. inkin ATCC 18020; ATCC18020, pH 6, Trichosporon inkin ATCC 18020, pH6, repeat experiment): 8 µg/mL (≈ 33.4 µM)
MIC (T. inkin ATCC 18020; ATCC18020, pH 7, Trichosporon inkin ATCC 18020, pH7): 8 µg/mL (≈ 33.4 µM)
MIC (T. inkin ATCC 18020; ATCC18020, pH 7, Trichosporon inkin ATCC 18020, pH7, repeat experiment): 8 µg/mL (≈ 33.4 µM)
